The record followed here is patent US9073940B2, “Tricyclic pyrazol amine derivatives” (MERCK SERONO SA, priority 2009, dated 2015).

The structures appear in SMILES notation.

This assay deals with 4 PI3K isoforms (Human recombinant GST-PI3K). Nature of the assay: PI3K scintillation proximity assay, best IC50 obtained with the four isoforms (alpha, beta, delta, gamma). Format: biochemical. Conditions: best IC50 obtained with the four isoforms of PI3K; read-out: Best potency measured on the 4 PI3K isoforms.
With `CC(=O)Nc1ccc2c(c1)-c1c(c(C(=O)N3CCOCC3)nn1-c1ccccc1)CS2(=O)=O` [Example 100, N-[3-(Morpholin-4-ylcarbonyl)-5,5-dioxido-1-phenyl-1,4-dihydrothiochromeno[4,3-c]pyrazol-8-yl]acetamide], the IC50 stood at 0.876 µM.
As to `O=C(c1nn(CC2CCCO2)c2c1CS(=O)(=O)c1ccccc1-2)N1CCOCC1` (centres unmarked) [Example 45, 3-(morpholin-4-ylcarbonyl)-1-(tetrahydrofuran-2-ylmethyl)-1,4-dihydrothiochromeno[4,3-c]pyrazole 5,5-dioxide], the IC50 was determined as 1.56 µM.
In the case of `O=C(c1nn(-c2ccc(CNC3CCOCC3)cc2)c2c1CS(=O)(=O)c1ccccc1-2)N1CCOCC1` [Example 436, N-{4-[3-(Morpholin-4-ylcarbonyl)-5,5-dioxidothiochromeno[4,3-c]pyrazol-1 (4H)-yl]benzyl}tetrahydro-2H-pyran-4-amine], the IC50 is 0.107 µM.
Then `O=C(c1nn(-c2ccccc2)c2c1CS(=O)(=O)c1c(Br)cccc1-2)N1CCOCC1` [Example 18], with 0.494 µM.
Then `O=C(c1nn(-c2cccc(CN3CCCC3)c2)c2c1CS(=O)(=O)c1ccccc1-2)N1CCOCC1` [Example 245, 3-(Morpholin-4-ylcarbonyl)-1-[3-(pyrrolidin-1-ylmethyl)phenyl]-1,4-dihydrothiochromeno[4,3-c]pyrazole 5,5-dioxide], with 0.516 µM; and `O=C(c1nn(C2CCN(CCC3CCOCC3)CC2)c2c1CS(=O)(=O)c1ccccc1-2)N1CCOCC1` [Example 285, 3-(morpholin-4-ylcarbonyl)-1-{1-[2-(tetrahydro-2H-pyran-4-yl)ethyl]piperidin-4-yl}-1,4-dihydrothiochromeno[4,3-c]pyrazole 5,5-dioxide], with 0.692 µM; and `COCCCN1CCCC(n2nc(C(=O)N3CCOCC3)c3c2-c2ccccc2S(=O)(=O)C3)C1` (centres unmarked) [Example 172, 1-[1-(3-Methoxypropyl)piperidin-3-yl]-3-(morpholin-4-ylcarbonyl)-1,4-dihydrothiochromeno[4,3-c]pyrazole 5,5-dioxide], with 0.14 µM.
The result for `O=C(c1cccc(-n2nc(C(=O)N3CCOCC3)c3c2-c2ccccc2S(=O)(=O)C3)c1)N1CCC(O)CC1` [Example 143, 1-{3-[3-(Morpholin-4-ylcarbonyl)-5,5-dioxidothiochromeno[4,3-c]pyrazol-1 (4H)-yl]benzoyl}piperidin-4-ol] reads 0.371 µM; that for `O=C(c1nn(C2CCCN(CCC(F)(F)F)C2)c2c1CS(=O)(=O)c1ccccc1-2)N1CCOCC1` (centres unmarked) [Example 222, 3-(Morpholin-4-ylcarbonyl)-1-[1-(3,3,3-trifluoropropyl)piperidin-3-yl]-1,4-dihydrothiochromeno[4,3-c]pyrazole 5,5-dioxide], 0.149 µM; that for `CS(=O)(=O)C1CCN(Cc2cccc(-n3nc(C(=O)N4CCOCC4)c4c3-c3ccccc3S(=O)(=O)C4)c2)C1` (centres unmarked) [Example 243, 1-(3-{[3-(Methylsulfonyl)pyrrolidin-1-yl]methyl}phenyl)-3-(morpholin-4-ylcarbonyl)-1,4-dihydrothiochromeno[4,3-c]pyrazole 5,5-dioxide], 0.464 µM.
Regarding `CN(C)CCCn1nc(C(=O)N2CCOCC2)c2c1-c1ccccc1S(=O)(=O)C2` [Example 69, N,N-Dimethyl-3-[3-(morpholin-4-ylcarbonyl)-5,5-dioxidothiochromeno[4,3-c]pyrazol-1(4H)-yl]propan-1-amine], the IC50 is 3.11 µM.
Then `O=C(c1nn([C@@H]2CCCN(CCC3CCOCC3)C2)c2c1CS(=O)(=O)c1ncccc1-2)N1CCOCC1` (single isomer, unassigned) [Example 423, 3-(morpholin-4-ylcarbonyl)-1-{1-[2-(tetrahydro-2H-pyran-4-yl)ethyl]piperidin-3-yl}-1,4-dihydropyrazolo[3′,4′:4,5]thiopyrano[2,3-b]pyridine 5,5-dioxide], with 0.099 µM; and `Cn1nc(C(=O)N2CCOCC2)c2c1-c1ccccc1S(=O)(=O)C2Cc1ccccc1` (centres unmarked) [Example 111, 4-Benzyl-1-methyl-3-(morpholin-4-ylcarbonyl)-1,4-dihydrothiochromeno[4,3-c]pyrazole 5,5-dioxide], with 5.27 µM.
On to `CC(C)(C)OC(=O)N1CCC(n2nc(C(=O)N3CCOCC3)c3c2-c2ccccc2S(=O)(=O)C3)C1` (centres unmarked) [Example 254], for which the IC50 was 1.2 µM.
In the case of `O=C(c1nn(-c2ccccc2)c2c1C(CC1CC1)S(=O)(=O)c1ccccc1-2)N1CCOCC1` (centres unmarked) [Example 58, 4-(cyclopropylmethyl)-3-(morpholin-4-ylcarbonyl)-1-phenyl-1,4-dihydrothiochromeno[4,3-c]pyrazole 5,5-dioxide], the IC50 amounted to 3.9 µM.
The result for `O=C(Nc1cccc(-n2nc(C(=O)N3CCOCC3)c3c2-c2ccccc2S(=O)(=O)C3)c1)N1CCOCC1` [Example 209, N-{3-[3-(Morpholin-4-ylcarbonyl)-5,5-dioxidothiochromeno[4,3-c]pyrazol-1 (4H)-yl]phenyl)morpholine-4-carboxamide] reads 3.59 µM; that for `O=C(NC1CCOCC1)c1cccc(-n2nc(C(=O)N3CCOCC3)c3c2-c2ccccc2S(=O)(=O)C3)c1` [Example 148, 3-[3-(Morpholin-4-ylcarbonyl)-5,5-dioxidothiochromeno[4,3-c]pyrazol-1(4H)-yl]-N-(tetrahydro-2H-pyran-4-yl)benzamide], 1.26 µM; that for `O=C(c1nn(C2CCCN(CC3CCOC3)C2)c2c1CS(=O)(=O)c1c(F)cccc1-2)N1CCOCC1` (centres unmarked) [Example 404, 6-Fluoro-3-(morpholin-4-ylcarbonyl)-1-[1-(tetrahydrofuran-3-ylmethyl)piperidin-3-yl]-1,4-dihydrothiochromeno[4,3-c]pyrazole 5,5-dioxide], 0.021 µM.
Then `O=C(c1nn(CCc2ccccn2)c2c1CS(=O)(=O)c1ccccc1-2)N1CCOCC1` [Example 55, 3-(morpholin-4-ylcarbonyl)-1-(2-pyridin-2-ylethyl)-1,4-dihydrothiochromeno[4,3-c]pyrazole 5,5-dioxide], with 1.92 µM; and `COCCNc1ccc2c(c1)-c1c(c(C(=O)N3CCOCC3)nn1C1CCCCC1)CS2(=O)=O` [Example 89], with 1.39 µM.
Consider `O=C(c1nn([C@@H]2CCCN(CCF)C2)c2c1CS(=O)(=O)c1ccccc1-2)N1CCOCC1` (single isomer, unassigned) [Example 366], for which the IC50 turned out to be 7.97 µM.
Then `O=C(c1nn([C@H]2CCCN(CCN3CC(F)(F)C3)C2)c2c1CS(=O)(=O)c1ccccc1-2)N1CCOCC1` (single isomer, unassigned) [Example 362, 1-{1-[2-(3,3-difluoroazetidin-1-yl)ethyl]piperidin-3-yl}-3-(morpholin-4-ylcarbonyl)-1,4-dihydrothiochromeno[4,3-c]pyrazole 5,5-dioxide], with 0.017 µM; and `CC1CC(C)CC(n2nc(C(=O)N3CCOCC3)c3c2-c2ccccc2S(=O)(=O)C3)C1` (centres unmarked) [Example 321], with 7.96 µM; and `CS(=O)(=O)Nc1cccc(-n2nc(C(=O)N3CCOCC3)c3c2-c2ccccc2S(=O)(=O)C3)c1` [Example 180, N-{3-[3-(Morpholin-4-ylcarbonyl)-5,5-dioxidothiochromeno[4,3-c]pyrazol-1 (4H)-yl]phenyl)methanesulfonamide], with 1.78 µM.
For the compound `O=C(c1nn([C@H]2CCCN(CCN3CCCC3)C2)c2c1CS(=O)(=O)c1ccccc1-2)N1CCOCC1` (stereo in doubt) [Example 450, 3-(morpholin-4-ylcarbonyl)-1-[1-(2-pyrrolidin-1-ylethyl)piperidin-3-yl]-1,4-dihydrothiochromeno[4,3-c]pyrazole 5,5-dioxide], the IC50 came to 0.007 µM.
Then `COc1ccc2c(c1)S(=O)(=O)Cc1c(C(=O)N3CCOCC3)nn([C@H]3CCCN(C4CCCOC4)C3)c1-2` (stereo in doubt) [Example 389, 7-methoxy-3-(morpholin-4-ylcarbonyl)-1-[1-(tetrahydro-2H-pyran-3-yl)piperidin-3-yl]-1,4-dihydrothiochromeno[4,3-c]pyrazole 5,5-dioxide], with 0.024 µM.
As for `CN1CCN(C(=O)c2ccc3c(c2)-c2c(c(C(=O)N4CCOCC4)nn2-c2ccccc2)CS3(=O)=O)CC1` [Example 114, 8-[(4-Methylpiperazin-1-yl)carbonyl]-3-(morpholin-4-ylcarbonyl)-1-phenyl-1,4-dihydrothiochromeno[4,3-c]pyrazole 5,5-dioxide], the IC50 was determined as 4.28 µM.
With `O=C(c1nn(-c2ccc3nn(Cc4ccccc4)cc3c2)c2c1CS(=O)(=O)c1ccccc1-2)N1CCOCC1` [Example 204, 1-(2-Benzyl-2H-indazol-5-yl)-3-(morpholin-4-ylcarbonyl)-1,4-dihydrothiochromeno[4,3-c]pyrazole 5,5-dioxide], the IC50 was 2.08 µM.
For `COC1CCN(CCN2CCC[C@H](n3nc(C(=O)N4CCOCC4)c4c3-c3ccc(F)cc3S(=O)(=O)C4)C2)CC1` (stereo in doubt) [Example 474, 7-fluoro-1-{1-[2-(4-methoxypiperidin-1-yl)ethyl]piperidin-3-yl}-3-(morpholin-4-ylcarbonyl)-1,4-dihydrothiochromeno[4,3-c]pyrazole 5,5-dioxide], the IC50 came out at 0.013 µM.
Then `O=C(CCN1CCC[C@H](n2nc(C(=O)N3CCOCC3)c3c2-c2ccccc2S(=O)(=O)C3)C1)N1CCC(F)(F)C1` (stereo in doubt) [Example 441, 1-{1-[3-(3,3-difluoropyrrolidin-1-yl)-3-oxopropyl]piperidin-3-yl}-3-(morpholin-4-ylcarbonyl)-1,4-dihydrothiochromeno[4,3-c]pyrazole 5,5-dioxide], with 0.041 µM; and `O=C(c1nn(CCc2ccccc2)c2c1CS(=O)(=O)c1ccccc1-2)N1CCOCC1` [Example 41, 3-(morpholin-4-ylcarbonyl)-1-(2-phenylethyl)-1,4-dihydrothiochromeno[4,3-c]pyrazole 5,5-dioxide], with 1.44 µM.
The result for `O=C(c1nn(C2CCN(CCO)CC2)c2c1CS(=O)(=O)c1ccccc1-2)N1CCOCC1` [Example 121, 2-{4-[3-(Morpholin-4-ylcarbonyl)-5,5-dioxidothiochromeno[4,3-c]pyrazol-1 (4H)-yl]piperidin-1-yl}ethanol] reads 1.76 µM.
